# Laboratory results: paper doi:10.1101/2021.02.21.432137v1 (biorxiv, 2021)
# Read-outs that look alike come from different tables or passages of the source.
# Experiments:
# [1] = biological target: T1, human recombinant STK3 (MST2) (Homo sapiens, UniProt Q13188); assay: radiometric kinase assay; assay type: biochemical
# T1 sequence (Q13188 1-491 limits assumed): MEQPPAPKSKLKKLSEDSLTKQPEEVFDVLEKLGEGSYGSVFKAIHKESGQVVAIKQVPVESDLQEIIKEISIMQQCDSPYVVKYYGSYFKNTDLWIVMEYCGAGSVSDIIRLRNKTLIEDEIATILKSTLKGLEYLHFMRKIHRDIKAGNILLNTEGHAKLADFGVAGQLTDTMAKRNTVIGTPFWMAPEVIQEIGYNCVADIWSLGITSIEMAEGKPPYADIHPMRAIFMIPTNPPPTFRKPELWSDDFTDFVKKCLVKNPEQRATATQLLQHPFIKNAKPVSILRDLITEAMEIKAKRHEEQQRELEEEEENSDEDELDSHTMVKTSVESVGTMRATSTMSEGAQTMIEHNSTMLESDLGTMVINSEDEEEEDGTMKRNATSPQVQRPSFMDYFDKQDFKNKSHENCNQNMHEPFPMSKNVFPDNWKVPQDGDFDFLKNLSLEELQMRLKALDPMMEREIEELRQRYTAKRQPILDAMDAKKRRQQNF
# [2] = biological target: T2, NanoLuc-STK3 (STK3-NanoBRET) (Homo sapiens, UniProt Q13188); assay: NanoBRET tracer displacement in live cells; assay type: cell-based
# T2 sequence (Q13188 1-491): T1 sequence (Q13188 1-491 limits assumed)
# [3] = biological target: human recombinant STK24 (aka MST3) (Homo sapiens, UniProt Q9Y6E0); conditions: inhibitor
# Chain of human recombinant STK24 (aka MST3) (Q9Y6E0 whole entry): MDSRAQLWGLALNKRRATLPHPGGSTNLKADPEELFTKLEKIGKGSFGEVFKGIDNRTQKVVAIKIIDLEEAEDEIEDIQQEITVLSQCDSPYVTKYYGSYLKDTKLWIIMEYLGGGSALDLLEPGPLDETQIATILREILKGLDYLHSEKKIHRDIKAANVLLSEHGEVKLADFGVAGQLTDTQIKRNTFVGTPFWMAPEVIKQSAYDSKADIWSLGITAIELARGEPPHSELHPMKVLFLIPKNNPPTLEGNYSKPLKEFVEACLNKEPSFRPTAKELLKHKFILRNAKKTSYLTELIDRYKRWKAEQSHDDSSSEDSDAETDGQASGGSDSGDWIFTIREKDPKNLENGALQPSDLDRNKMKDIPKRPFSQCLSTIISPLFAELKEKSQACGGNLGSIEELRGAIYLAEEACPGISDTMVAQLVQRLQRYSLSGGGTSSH
# [4] = biological target: human recombinant STK26 (aka MST4) (Homo sapiens, UniProt Q9P289); conditions: inhibitor
# Chain of human recombinant STK26 (aka MST4) (Q9P289 2-416): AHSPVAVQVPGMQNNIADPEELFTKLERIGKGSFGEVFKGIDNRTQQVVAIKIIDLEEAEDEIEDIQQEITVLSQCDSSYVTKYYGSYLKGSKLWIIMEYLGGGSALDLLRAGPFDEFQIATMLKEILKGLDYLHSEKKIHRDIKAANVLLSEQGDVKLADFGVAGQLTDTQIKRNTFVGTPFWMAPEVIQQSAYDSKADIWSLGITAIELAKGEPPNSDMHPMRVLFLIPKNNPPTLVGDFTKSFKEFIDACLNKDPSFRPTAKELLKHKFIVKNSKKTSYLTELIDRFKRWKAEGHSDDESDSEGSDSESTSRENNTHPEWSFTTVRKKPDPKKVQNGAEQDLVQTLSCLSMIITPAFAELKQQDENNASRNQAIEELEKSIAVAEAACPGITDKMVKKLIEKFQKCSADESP
# [5] = biological target: T3, human recombinant STK4 (Homo sapiens, UniProt Q13043); conditions: inhibitor
# T3 sequence (Q13043 1-487): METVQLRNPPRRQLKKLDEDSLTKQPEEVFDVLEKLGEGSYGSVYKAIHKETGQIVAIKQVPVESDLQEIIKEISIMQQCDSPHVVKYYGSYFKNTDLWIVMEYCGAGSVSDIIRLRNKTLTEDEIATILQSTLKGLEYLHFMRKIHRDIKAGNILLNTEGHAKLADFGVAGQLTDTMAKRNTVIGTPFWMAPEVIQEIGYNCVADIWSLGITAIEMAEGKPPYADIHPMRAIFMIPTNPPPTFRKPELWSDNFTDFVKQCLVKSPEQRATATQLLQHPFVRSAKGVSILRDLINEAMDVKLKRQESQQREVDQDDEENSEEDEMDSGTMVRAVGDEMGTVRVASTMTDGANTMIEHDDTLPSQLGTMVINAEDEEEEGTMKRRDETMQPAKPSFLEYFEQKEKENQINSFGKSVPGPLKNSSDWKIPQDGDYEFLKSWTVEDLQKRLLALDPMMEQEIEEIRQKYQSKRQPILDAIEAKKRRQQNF
# [6] = biological target: T1, human recombinant STK3 (MST2); conditions: inhibitor
IC50 [2],MST3 % activity remaining (1µM) [3],MST4 % activity remaining (1µM) [4],STK4 % activity remaining (1µM) [5],other results,SMILES
4.3 µM,,,,IC50 [1]: 0.113 µM,"CN(C)c1ncnc2[nH]cc(-c3cccc(C#N)c3)c12 [B1, UNC-SOB-5-16]"
9.2 µM,,,,IC50 [1]: 0.195 µM,"C[C@H](NC(=O)c1c[nH]c2ncc(C3CC3)nc12)C(C)(C)O [A2, UNC-BE4-018]"
,21%,74%,39%,,COc1cccc([C@H](C)NC(=O)c2c[nH]c3ncc(-c4ccccc4)nc23)c1 [A5]
,31%,74%,26%,STK3 % activity remaining (1µM) [6]: 44%,COCCCNC(=O)c1c[nH]c2ncc(C3CC3)nc12 [A6]
,12%,54%,7%,STK3 % activity remaining (1µM) [6]: 15%,C[C@H](NC(=O)c1c[nH]c2ncc(C3CC3)nc12)C(C)(C)O [A2]
2 µM,,,,IC50 [1]: 0.007 µM,"C[C@H](NC(=O)c1c[nH]c2ncc(-c3ccccc3)nc12)C(C)(C)C [A3, UNC-BE4-035]"
,92%,106%,98%,STK3 % activity remaining (1µM) [6]: 82%,CS(=O)(=O)N1CCN(C(=O)c2c[nH]c3ncc(C4CC4)nc23)CC1 [A9]
,,,,"IC50 ([1]; ATP at Km, myelin basic protein substrate): 0.391 µM; IC50 ([2]; read-out: NB IC50, NanoBRET Tracer K10 at […], live HEK-293 cells): > 10 µM","COc1cccc([C@H](C)NC(=O)c2c[nH]c3ncc(-c4ccccc4)nc23)c1 [A5, UNC-BE4-040-1]"
,60%,71%,36%,STK3 % activity remaining (1µM) [6]: 89%,CNS(=O)(=O)CCNC(=O)c1c[nH]c2ncc(C3CC3)nc12 [A11]
,85%,82%,84%,STK3 % activity remaining (1µM) [6]: 138%,O=C(c1c[nH]c2ncc(C3CC3)nc12)N1CCOCC1 [A13]
> 10 µM,,,,,"CNS(=O)(=O)CCNC(=O)c1c[nH]c2ncc(C3CC3)nc12 [A11, UNC-BE4-033]"
,9%,51%,4%,,C[C@H](NC(=O)c1c[nH]c2ncc(-c3ccccc3)nc12)C(C)(C)O [A4]
,15%,40%,14%,,CN1C(=O)c2sccc2N(C)c2nc(Nc3ccc(S(N)(=O)=O)cc3)ncc21 [XMU-MP-1]
> 10 µM,,,,,"CS(=O)(=O)N1CCN(C(=O)c2c[nH]c3ncc(C4CC4)nc23)CC1 [A9, UNC-BE4-031]"
> 10 µM,,,,,"COCCCNC(=O)c1c[nH]c2ncc(C3CC3)nc12 [A6, UNC-BE4-032]"
2.1 µM,,,,IC50 [1]: 0.124 µM,"C[C@H](NC(=O)c1c[nH]c2ncc(-c3ccccc3)nc12)C(C)(C)O [A4, UNC-BE4-36-1]"
> 10 µM,,,,,"O=C(c1c[nH]c2ncc(C3CC3)nc12)N1CCOCC1 [A13, UNC-BE4-036]"
,6%,27%,2%,,C[C@H](NC(=O)c1c[nH]c2ncc(-c3ccccc3)nc12)C(C)(C)C [A3]
